The source of these data is US20250027130A1, “Nucleic Acid Synthesis and Sequencing Using Tethered Nucleoside Triphosphates” (The Regents of the University of California, priority 2022, published 2025).

For the assay, the system named is MaPylRS. Description: Intact tRNA mass spectrometry: acylation of Ma-tRNA^Pyl by MaPylRS. In kind it is biochemical, Methanomethylophilus alvus. The conditions noted are these: MaPylRS 2.5 μM, Ma-tRNA^Pyl 25 μM, 37° C., 2 h; average of 3 technical replicates.

Take `CC(C)(C)OC(=O)NCCCCC(C(=O)O)C(=O)O` [Substrate 16]: the “Yield of diacylated Ma-tRNA^Pyl” value was 0.0% and the “Yield of monoacylated Ma-tRNA^Pyl” value stood at 0.25%.
